Assay results reported in patent publication US9133242B2, “Peptide for use as a medicament, in particular for the treatment of cancer” (priority 2010, dated 2015).
Entries after “also recorded” stand apart in the source; their conditions may differ. Where no end group is shown, it is not given here.

Columns and labels:
Format in all cases: cell-based
[1] = system: TX 1 cells (line derived from breast tumors which no longer respond to Taxol); assay: Growth inhibition of Taxol-resistant TX 1 cells; conditions: after 24 H of culture
Procedure: (§1) The studies were carried out on two cell lines, TX 1 and TX 2, derived from breast tumors which no longer respond to Taxol. […] 1 and the peptide of SEQ. 7. […]

[2] = system: TX 2 cells (line derived from breast tumors which no longer respond to Taxol); assay: Growth inhibition of Taxol-resistant TX 2 cells; conditions: after 24 H of culture
Procedure: as §1

A 549 (Human lung tumor) = assay: MTT cell viability, A549 lung cancer line; conditions: variants tested on the A549 line; for evaluation of the activity (in words): compared with peptide SEQ. 1
Procedure: Approximately 10 000 cells were seeded, in a volume of 0.2 mL per well, into 96-well microplates for 24 hours before treatment with the peptide of SEQ. 1. The cells were incubated for 48 to 72 hours at 37° C. in a CO2 incubator in the presence or absence of the peptide of SEQ. 1 at various concentrations.
Following this incubation, MTT reagent or 3-(4,5-dimethyl[…])-2,5-diphenyltetrazolium bromide (0.5 mg/ml in a volume of 0.1 ml) was added to each well and incubated for 2 hours at 37° C.
The tetrazolium ring contained by the MTT is then reduced by the succinate dehydrogenase of the live cells, to give formazan. Next, the supernatant was removed and 0.1 ml of lysis buffer (isopropanol containing 10% of triton×100 and 10% of 1N HCl) was added in order to dissolve the bluish violet formazan precipitate formed. After a few minutes, the absorbance was determined at ambient temperature using a microplate reader at a test wavelength of 562 nm. Wells not comprising peptide of SEQ. 1 were used so as to verify the viability of control cells. IC 50 (concentration of peptide of SEQ. 1 causing 50% cytotoxicity on these cell lines) values for each cell variety were evaluated by means of the ratio of the absorbance of the treated cells to the absorbance of the control cells. […]

[3] = system: FIBRO 1 and FIBRO 2 nontumorigenic fibroblast cells; assay: Immunofluorescent labeling of microtubule network, healthy fibroblasts; conditions: human fibroblasts FIBRO 1 and FIBRO 2, 15 μM
Procedure: FIG. 4 represents photos of non-tumor cell lines, FIBRO 1 and FIBRO 2 (fibroblast cells), treated with the peptide of SEQ. 1 at 15 μM and not treated with this peptide (control);
The specific activity of the peptide of SEQ. Two varieties of nontumorigenic fibroblast cells: FIBRO 1 and FIBRO 2, were brought into contact with the peptide of SEQ. 1 in order to see whether the microtubule network of healthy cells was also disrupted by the peptide. […] 1 (no modification of polymerized tubulin density), at the very least at concentrations of peptide of SEQ. 1 used for the cancer cells (15 μM). This observation represents an important advance of the present invention.

Substance: INWKKIAKKVAGML-NH2 [SEQ. 7, INWKKIAKKVAGML-NH2]
- growth inhibition [1]: significant
- growth inhibition [2]: significant
- evaluation of the activity (in words) (A 549 (Human lung tumor)): absolutely equivalent to the peptide SEQ. 1; also recorded: Very good activity

Substance: INWLAIAAKVAGML [SEQ. 4, INWLAIAAKVAGML-NH2]
- evaluation of the activity (in words) (A 549 (Human lung tumor)): absolutely equivalent to the peptide SEQ. 1; also recorded: Very good activity

Substance: INWLAIAKKVAGML [SEQ. 3, INWLAIAKKVAGML-NH2]
- evaluation of the activity (in words) (A 549 (Human lung tumor)): absolutely equivalent to the peptide SEQ. 1; also recorded: Very good activity

Substance: INWLKIAKKVAG-NH2 [SEQ. 19, INWLKIAKKVAG-NH2]
- evaluation of the activity (in words) (A 549 (Human lung tumor)): Medium activity

Substance: INWLKIAKKVAGM-NH2 [SEQ. 18, INWLKIAKKVAGM-NH2]
- evaluation of the activity (in words) (A 549 (Human lung tumor)): Medium activity

Substance: INWLKIAKKVAGML [SEQ. 2]
- IC50 (A 549 (Human lung tumor)): ~15 µM
- evaluation of the activity (in words) (A 549 (Human lung tumor)): Medium activity

Substance: INWLKIAKKVAGML-NH2 [SEQ. 1, INWLKIAKKVAGML-NH2]
- modification of polymerized tubulin density in healthy cells [3]: do not respond at all

Substance: INWLKIAKKVKGML [SEQ. 9, INWLKIAKKVKGML-NH2]
- evaluation of the activity (in words) (A 549 (Human lung tumor)): absolutely equivalent to the peptide SEQ. 1; also recorded: Very good activity
